Results from publication PMC4129416, “YLT192, a Novel, Orally Active Bioavailable Inhibitor of VEGFR2 Signaling with Potent Antiangiogenic Activity and Antitumor Efficacy in Preclinical Models” (Scientific Reports, 2014).

Columns and labels:
[1] = test system: HCT116 cells; test: Annexin V/propidium iodide apoptosis assay, flow cytometry; assay type: cell-based, human; conditions: 48 hours; annexin V-FITC and PI staining; concentration-dependent
Description: Figure 4 Inhibitory effects of YLT192 on tumor cells. (A) YLT192 inhibited U251 and HCT116 cells proliferation. The EdU incorporation assay was conducted on U251 and HCT116 cells after treated with YLT192 for 24 hours. The EdU-positive (red fluorescent staining) cells and Hoechst staining (blue fluorescent staining) cells represented proliferating and total cells in the fluorescent images, respectively (100×). Quantification was shown on the right panels. (B) YLT192 induced apoptosis of HCT116 cells. HCT116 cells were treated with YLT192 or vehicle for 48 hours followed by flow cytometric analysis of annexin V-FITC and PI staining. The proportion of early apoptotic cells (annexin V positive) and late apoptotic cells (annexin V and PI positive cells) were shown. Typical apoptosis-related proteins caspase 3 and Bax were detected by western blot. Each has the expression of β-actin as internal control. The full size blots were shown in the Supplemental Figure S6 online. For (A) and (B), one representative experiment of three is shown. Data are means ± SEM, *P < 0.05, **P < 0.01. (C) YLT192 inhibited oncogenic signaling pathways in tumor cells in vitro. U251 and HCT116 cells were treated with YLT192 or vehicle for 48 hours and the expression of protein in different signaling pathways were detected by western blot with specific antibodies. Blots are representative of three experiments. […]

[2] = test system: U251 cells; test: Western blot of oncogenic signaling pathways; assay type: cell-based, human; conditions: 48 h
Description: (§1) Figure 4 Inhibitory effects of YLT192 on tumor cells. (A) YLT192 inhibited U251 and HCT116 cells proliferation. The EdU incorporation assay was conducted on U251 and HCT116 cells after treated with YLT192 for 24 hours. The EdU-positive (red fluorescent staining) cells and Hoechst staining (blue fluorescent staining) cells represented proliferating and total cells in the fluorescent images, respectively (100×). Quantification was shown on the right panels. (B) YLT192 induced apoptosis of HCT116 cells. HCT116 cells were treated with YLT192 or vehicle for 48 hours followed by flow cytometric analysis of annexin V-FITC and PI staining. […] Typical apoptosis-related proteins caspase 3 and Bax were detected by western blot. […] U251 and HCT116 cells were treated with YLT192 or vehicle for 48 hours and the expression of protein in different signaling pathways were detected by western blot with specific antibodies. […]
(§2) To gain further insight into the molecular mechanism of the inhibitory effects of YLT192 on tumor cells we evaluated the expression of p44/42 MAPK, STAT3, AKT, and mammalian target of rapamycin (mTOR) in U251 and HCT116 cells 48 h after treatment.
(§3) Supplementary Figure S8. […] U251 and HCT116 cells were treated with YLT192 or vehicle for 48 hours and the expression of protein in different signaling pathways were detected by western blot with specific antibodies. […]

[3] = test system: HCT116 cells; test: Western blot of oncogenic signaling pathways; assay type: cell-based, human; conditions: 48 h
Description: as §1, §2, §3

[4] = biological target: T1, ALK (Homo sapiens, UniProt Q9UM73); test: Radiometric kinase assay (Millipore Kinase Profile Service); assay type: biochemical; conditions: means ± SD, two independent experiments, read-out: inhibition rate at 1 μM (%)
T1 construct: purchased Millipore (Kinase Profile Service, UK)
Description: YLT192 was designed and synthesized in the State Key Laboratory of Biotherapy, Sichuan University (Sichuan, China). Its structural formula and synthesis route was shown in Fig. 1A and Supplementary Figure S1, respectively. The kinase inhibitory activity of YLT192 was measured by the use of radiometric assays provided by Kinase Profile Service (Millipore, UK). The effects of YLT192 on kinase activity were detected using the scintillation proximity assay method at an enzymatic level. […] In addition, the inhibitory activity of YLT192 was examined against platelet-derived growth factor receptor (PDGFR)-related kinases because of their structural similarity to the VEGFR2. […] Moreover, excellent selectivity for VEGFR2 was evident compared with a range of unrelated tyrosine and serine/threonine kinases, including fibroblast growth factor receptor 3, polo-like kinase 1, aurora-A, Axl, MET, protein kinase A, c-RAF etc.

[5] = test system: MDA-MB-231; test: Inhibition of tumor cell growth; assay type: cell-based; conditions: MDA-MB-231, human mammary carcinoma; 48 hour treatment; means ± SD, n=3
Text: (§4) Data are means ± SD, n=3.
(§5) cell line cell type IC50(μM) […]

[6] = test system: BEL7402; test: Inhibition of tumor cell growth; assay type: cell-based; conditions: Bel-7402; BEL7402, human hepatocellular carcinoma; 48 hour treatment; means ± SD, n=3
Text: as §4, §5

[7] = test system: SKOV-3; test: Inhibition of tumor cell growth; assay type: cell-based; conditions: SK-OV-3; SKOV-3, human ovarian carcinoma; 48 hour treatment; means ± SD, n=3
Text: as §4, §5

[8] = test system: Hela; test: Inhibition of tumor cell growth; assay type: cell-based; conditions: human epithelial carcinoma, 48 hour treatment, means ± SD, n=3
Text: as §4, §5

[9] = test system: SPC-A1; test: Inhibition of tumor cell growth; assay type: cell-based; conditions: SPCA1; SPC-A1, human lung cancer; 48 hour treatment; means ± SD, n=3
Text: as §4, §5

[10] = test system: MV4-11; test: Inhibition of tumor cell growth; assay type: cell-based; conditions: MV4-11, human acute myeloid leukemia; 48 hour treatment; means ± SD, n=3
Text: as §4, §5

[11] = test system: SMMC-7721; test: Inhibition of tumor cell growth; assay type: cell-based; conditions: SMMC-7721, human hepatocellular carcinoma; 48 hour treatment; means ± SD, n=3
Text: as §4, §5

[12] = test system: MCF-7; test: Inhibition of tumor cell growth; assay type: cell-based; conditions: MCF7; MCF-7, human mammary carcinoma; 48 hour treatment; means ± SD, n=3
Text: as §4, §5

[13] = test system: A431; test: Inhibition of tumor cell growth; assay type: cell-based; conditions: A-431; A431, human pidermoid carcinoma; 48 hour treatment; means ± SD, n=3
Text: as §4, §5

[14] = test system: SW620; test: Inhibition of tumor cell growth; assay type: cell-based; conditions: SW-620; SW620, human colorectal carcinoma; 48 hour treatment; means ± SD, n=3
Text: as §4, §5

[15] = test system: LS147T; test: Inhibition of tumor cell growth; assay type: cell-based; conditions: human colorectal carcinoma, 48 hour treatment, means ± SD, n=3
Text: as §4, §5

T1 sequence (Q9UM73 19-1620): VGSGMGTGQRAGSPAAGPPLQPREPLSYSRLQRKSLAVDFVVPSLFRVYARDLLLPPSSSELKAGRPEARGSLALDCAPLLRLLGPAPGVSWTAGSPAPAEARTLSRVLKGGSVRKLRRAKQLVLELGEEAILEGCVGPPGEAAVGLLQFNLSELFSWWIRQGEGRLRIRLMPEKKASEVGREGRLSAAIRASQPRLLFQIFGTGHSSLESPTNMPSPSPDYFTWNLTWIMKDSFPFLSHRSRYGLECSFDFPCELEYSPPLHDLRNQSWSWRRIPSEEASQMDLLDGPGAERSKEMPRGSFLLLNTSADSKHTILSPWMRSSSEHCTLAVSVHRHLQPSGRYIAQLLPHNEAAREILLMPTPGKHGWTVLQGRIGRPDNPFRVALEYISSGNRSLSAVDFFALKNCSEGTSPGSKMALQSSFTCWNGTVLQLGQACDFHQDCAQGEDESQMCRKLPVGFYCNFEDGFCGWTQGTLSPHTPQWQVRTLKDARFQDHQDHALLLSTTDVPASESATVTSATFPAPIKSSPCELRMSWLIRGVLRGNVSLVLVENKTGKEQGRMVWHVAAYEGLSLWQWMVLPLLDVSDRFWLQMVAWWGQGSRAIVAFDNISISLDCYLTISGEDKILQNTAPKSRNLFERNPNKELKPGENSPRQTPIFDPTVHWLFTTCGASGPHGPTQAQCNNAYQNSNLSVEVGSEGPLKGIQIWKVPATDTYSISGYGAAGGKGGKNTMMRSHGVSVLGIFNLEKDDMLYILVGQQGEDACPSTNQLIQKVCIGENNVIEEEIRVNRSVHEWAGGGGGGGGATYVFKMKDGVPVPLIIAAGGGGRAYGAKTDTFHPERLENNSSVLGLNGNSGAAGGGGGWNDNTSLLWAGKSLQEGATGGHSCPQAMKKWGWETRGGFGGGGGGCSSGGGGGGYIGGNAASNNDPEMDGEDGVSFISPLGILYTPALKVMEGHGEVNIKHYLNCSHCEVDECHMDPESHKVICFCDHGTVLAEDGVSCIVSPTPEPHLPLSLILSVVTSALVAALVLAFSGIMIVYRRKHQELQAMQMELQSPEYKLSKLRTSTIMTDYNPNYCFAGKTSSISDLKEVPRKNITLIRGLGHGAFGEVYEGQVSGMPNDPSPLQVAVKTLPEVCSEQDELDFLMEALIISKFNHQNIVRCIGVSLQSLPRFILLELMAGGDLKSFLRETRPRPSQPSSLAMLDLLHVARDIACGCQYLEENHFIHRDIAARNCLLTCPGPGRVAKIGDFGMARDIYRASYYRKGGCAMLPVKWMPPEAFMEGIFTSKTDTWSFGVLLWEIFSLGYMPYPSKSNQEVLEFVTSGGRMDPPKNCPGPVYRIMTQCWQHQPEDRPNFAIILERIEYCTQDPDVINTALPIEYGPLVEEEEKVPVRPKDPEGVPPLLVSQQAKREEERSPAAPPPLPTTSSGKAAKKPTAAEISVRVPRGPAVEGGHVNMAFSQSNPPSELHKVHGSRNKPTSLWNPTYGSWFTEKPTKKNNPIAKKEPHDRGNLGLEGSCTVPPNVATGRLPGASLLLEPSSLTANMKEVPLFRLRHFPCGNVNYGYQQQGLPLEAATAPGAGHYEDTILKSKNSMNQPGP

CNC(=O)c1cc(Oc2ccc(NC(=O)c3cccc(OC)c3)cc2)ccn1 [YLT192]
apoptosis in HCT116 cells [1]: increased apoptosis | expression of phosphorylated p44/42 MAPK, STAT3, AKT, and mTOR [2]: dramatically decreased | expression of phosphorylated p44/42 MAPK, STAT3, AKT, and mTOR [3]: dramatically decreased | inhibition at 1 µM [4]: -4 ± 3% | IC50 [5]: 11.9 ± 2.1 µM | IC50 [6]: 11.3 ± 1.1 µM | IC50 [7]: 8.2 ± 1.5 µM | IC50 [8]: 18.9 ± 2.4 µM | IC50 [9]: 16.4 ± 1.4 µM | IC50 [10]: 21.9 ± 1.9 µM | IC50 [11]: 12.1 ± 1.6 µM | IC50 [12]: 16.8 ± 1.7 µM | IC50 [13]: 7.7 ± 0.9 µM | IC50 [14]: 7.9 ± 1.7 µM | IC50 [15]: 9 ± 1.1 µM
